Experimental data as given in patent publication US10391137B2, “Platelet-derived growth factor-BB production promotor, and mesenchymal stem cell production accelerator, stem cell stabilizer and dermal regenerator comprising the same” (Shiseido Company, Ltd., priority 2011, dated 2019).

Test system: PDGF-B gene expression in human vascular endothelial cells HUVEC
Test: Evaluation of PDGF-BB production-promoting effect in vascular endothelial cells (PDGF-B mRNA, quantitative RT-PCR)
Assay type: cell-based
Details: 10 ppm in medium, cultured 2 days, PDGF-BB mRNA vs. solvent control, G3PDH internal standard
Protocol: Human vascular endothelial cells HUVEC were subcultured with EGM-2 medium (Sanko Junyaku Co., Ltd.), and cells of the 4th subculture were suspended in VEGF-A-free Humedia-EG2 medium (Kurabo Industries, Ltd.) and seeded in a collagen-coated 24-well multiplate (Asahi Glass Co., Ltd.) at a 20,000 cell ratio, and culturing was conducted in the presence of 5% CO2 for 3-5 days until the cells reached confluence at 37° C. After exchange with Humedia-EG2 medium (Kurabo Industries, Ltd.) containing each sample added to the specified concentration or an added solvent dissolving each evaluation sample, culturing was continued for 2 days. The mRNA was extracted and purified from the cultured cells using an RNA extraction reagent MagNA Pure LC mRNA HS kit (Roche) and an automatic nucleic acid extraction apparatus MagNA Pure LC 1.0 Instrument (Roche), according to the manufacturer's protocol. For each sample, an equal volume of mRNA was used as template for one-step quantitative real time (RT)-PCR of the PDGF-B gene using primer pairs of SEQ ID NO: 1 and 2 listed below, the reaction reagent QuantiFast SYBR Green RT-PCR Kit (Qiagen) and a LightCycler reactor (Roche). The composition conditions were according to the protocol by Qiagen. […]

Compound	PDGF-BB expression (vs. control)
O=P(O)(O)O[C@H]1[C@H](OP(=O)(O)O)[C@@H](OP(=O)(O)O)[C@H](OP(=O)(O)O)[C@@H](OP(=O)(O)O)[C@H]1OP(=O)(O)O [Phytic acid, phytic acid]	1.20
O[C@H]1[C@H](O)[C@@H](O)[C@H](O)[C@@H](O)[C@H]1O [Inositol, myo-inositol]	1.37
